Data taken from patent US11293023B2, “Tunable endogenous protein degradation” (Dana-Farber Cancer Institute, Inc., priority 2015, dated 2022).

How the values were obtained:
Type in all cases: cell-based
FKBP*-KRASG12V = assay: Immunoblot of FKBP*-KRASG12V (dTAG-KRAS) degradation in NIH3T3 cells
Method: (§1) FIG. 11 is an immunoblot of NIH3T3 cells expressing KRASG12V allele fused to FKBP* in the N-terminus or C-terminus. Cells were treated with 500 nM dFKBP7 for the indicated time. Cells were harvested and immunoblotted to measure degradation of FKBP*-KRASG12V and downstream surrogates of KRAS signaling (e.g. pMEK and pAKT).
(§2) FIG. 12 is an immunoblot of NIH3T3 cells expressing FKBP* fused to the N-terminus of KRASG12V treated with 1 uM of the indicated dFKBP heterobifunctional compounds for 24 hours. Cells were harvested and immunoblotted to measure degradation of FKBP*-KRASG12V and downstream surrogates of KRAS signaling (e.g. pMEK and pAKT).
as §2, with “FIG. 13” for “FIG. 12”, “with” for “with 1 uM of”, “indicated concentrations of dFKBP13” for “indicated dFKBP heterobifunctional compounds”
(§3) FIG. 14 is an immunoblot of NIH3T3 cells expressing FKBP* fused to the N-terminus of KRASG12V treated with 1 uM dFKBP13 for the indicated time. Cells were harvested and immunoblotted to measure degradation of FKBP*-KRASG12V and downstream surrogates of KRAS signaling (e.g. pMEK and pAKT).
FIG. 15 is an immunoblot of NIH3T3 cells expressing dTAG-KRASG12V pretreated with 1 uM Carfilzomib (proteasome inhibitor), 0.5 uM MLN4924 (neddylation inhibitor), and 10 uM Lenalidomide (CRBN binding ligand) for two hours prior to a 4 hour treatment with dFKBP13.
(§4) Cells were treated with 500 nM dFKBP7 for the indicated time. Cells were harvested and immunoblotted to measure degradation of FKBP*-KRAS and downstream surrogates of KRAS signaling (e.g. pMEK and pAKT).
(§5) In an effort to identify the best performing dFKBP molecule, dTAG-KRAS degradation was profiled across a series of dFKBP molecules. Western blotting of NIH3T3 cells expressing dTAG-KRASG12V were treated with 1 μM of the indicated dFKBP heterobifunctional compounds for 24 hours. Cells were harvested and immunoblotted to measure degradation of FKBP*-KRAS and downstream surrogates of KRAS signaling (e.g. pMEK and pAKT).
(§6) Western blotting of NIH3T3 cells expressing FKBP* fused to the N-terminus of KRAS treated with the indicated concentrations of dFKBP13 for 24 hours. Cells were harvested and immunoblotted to measure degradation of FKBP*-KRAS and downstream surrogates of KRAS signaling (e.g. pMEK and pAKT).
(§7) To evaluate the kinetic control of targeted degradation of dTAG-KRAS, dFKBP13 was administered by increased duration. Western blotting of NIH3T3 cells expressing FKBP* fused to the N-terminus of KRAS treated with 1 μM dFKBP13 for the indicated time. Cells were harvested and immunoblotted to measure degradation of FKBP*-KRAS and downstream surrogates of KRAS signaling (e.g. pMEK and pAKT).
NIH3T3 cells (CRBN-WT) were engineered to express dTAG-KRASG12V. Cells were pretreated with 1 uM Carfilzomib (proteasome inhibitor), 0.5 uM MLN4924 (neddylation inhibitor), and 10 uM Lenalidomide (CRBN binding ligand) for two hours prior to a 4 hour treatment with dFKBP13. Lysates were prepared and western immunoblot analysis performed. […] Pre-treatment with the NAE1 inhibitor MLN4924 rescued dTAG-KRASG12V expression establishing dependence on CRL activity, as expected for cullin-based ubiquitin ligases that require neddylation for processive E3 ligase activity. Pre-treatment with excess Lenalidomide abolished dFKBP13-dependent dTAG-KRASG12V degradation, confirming the requirement of CRBN engagement for degradation.

[1] = biological target: T1, FKBP* (FKBP12 F36V), HA-tagged (Homo sapiens, UniProt P62942, F37V); assay: Immunoblot of FKBP* degradation in 293FT cells (CRBN-WT or CRBN−/−)
T1 construct: expressed in transfected cells; host or cells: 293FT cells (CRBN-WT or CRBN-/-)
Method: 293FT cells (CRBN-WT or CRBN−/−) expressing either HA-tagged FKBP12WT or FKBP* were treated with indicated concentrations of dFKBP7 for 4 hours.
Isogenic 293FT cells (CRBN-WT or CRBN−/−) expressing either FKBP12WT or FKBP* were treated with 100 nM of either dFKBP7 or dFKBP13 for 4 hours.
Isogenic 293FT cells (CRBN-WT or CRBN−/−) expressing HA-tagged FKBP* were treated with the indicated dose of dFKBP13 for 4 hours.
(§8) 293FT cells (CRBN-WT) expressing FKBP* were pretreated with 1 uM Carfilzomib (proteasome inhibitor), 0.5 uM MLN4924 (neddylation inhibitor), and 10 uM Lenalidomide (CRBN binding ligand) for two hours prior to a 4 hour treatment with dFKBP13.
The dTAG is predicated on the selectivity of FKBP* specific ligands over endogenous, wild type FKBP. In 293T cells expressing wild type FKBP12 or FKBP*, dFKBP7 induces targeted degradation only in FKBP* expressing cells. […] 293FT cells (CRBN-WT or CRBN−/−) expressing either HA-tagged FKBP12WT or FKBP* were treated with indicated concentrations of dFKBP7 for 4 hours.
In 293T cells expressing wild type FKBP12 or FKBP*, treatment with dFKBP7 and dFKBP13 induces targeted degradation only in FKBP* expressing cells. Isogenic 293FT cells (CRBN-WT or CRBN−/−) were engineered to expressed either FKBP12WT or FKBP*. Cells were treated with 100 nM of either dFKBP7 or dFKBP13 for 4 hours before lysates were prepared for western immunoblot analysis.
In an effort to define the optimal concentration of dFKB13 heterobifunctional compound to induce degradation of FKBP*, degradation was measured upon treatment with increasing concentrations of dFKBP13. Isogenic 293FT cells (CRBN-WT or CRBN−/−) were engineered to expressed HA-tagged FKBP*. Cells were treated with the indicated dose of dFKBP13 for 4 hours before lysates were prepared for western immunoblot analysis.
as §8, with “were engineered to express FKBP*. Cells” for “expressing FKBP*”, “dFKBP13. Lysates were prepared and western immunoblot analysis performed.” for “dFKBP13.”

[2] = system: KRAS signaling (pMEK and pAKT); assay: Immunoblot of downstream surrogates of KRAS signaling in NIH3T3 cells expressing dTAG-KRAS; conditions: NIH3T3 FKBP*-KRASG12V, 1 uM, 24 hours
Method: as §1, §2
as §3, with “13” for “14”, “the indicated concentrations of” for “1 uM”, “24 hours.” for “the indicated time.”
as §3, §4, §5, §6, §7
(§9) The dFKBP13 heterobifunctional compound potently degrades dTAG-KRAS mutant alleles. NIH3T3 cells were engineered to express KRAS alleles either WT or mutant forms of amino acid glycine 12 (G12C, G12D, and G12V). Western blotting of NIH3T3 cells expressing dTAG fused to the N-terminus of KRAS alleles were treated with 1 uM of dFKBP13 for 24 hours. Cells were harvested and immunoblotted to measure degradation of dTAG-KRAS and downstream surrogates of KRAS signaling (e.g. pMEK and pAKT).
as §9, with “express” for “express KRAS alleles”, “KRAS alleles (G13D, Q61L,” for “forms of amino acid glycine 12 (G12C, G12D,”, “Q61R).” for “G12V).”

[3] = 1 uM Carfilzomib, two hours prior to a 4 hour treatment with dFKBP13
[4] = 10 uM Lenalidomide, two hours prior to a 4 hour treatment with dFKBP13
[5] = 0.5 uM MLN4924, two hours prior to a 4 hour treatment with dFKBP13

T1 sequence (P62942 2-108 F37V limits assumed): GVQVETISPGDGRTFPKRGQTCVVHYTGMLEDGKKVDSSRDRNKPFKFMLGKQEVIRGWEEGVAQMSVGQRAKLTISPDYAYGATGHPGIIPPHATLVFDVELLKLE

**Q.** Which “effect of pretreatment on dFKBP13-induced degradation of dTAG-KRASG12V” value (FKBP*-KRASG12V; [3]) does the source give for `CC(C)C[C@H](NC(=O)[C@H](CCc1ccccc1)NC(=O)CN1CCOCC1)C(=O)N[C@@H](Cc1ccccc1)C(=O)N[C@@H](CC(C)C)C(=O)[C@@]1(C)CO1` [Carfilzomib, reference compound] here?
**A.** rescued

**Q.** And the “effect of pretreatment on dFKBP13-induced degradation of HA-tagged FKBP*” value [1, 3]?
**A.** rescued

**Q.** With `Nc1cccc2c1CN(C1CCC(=O)NC1=O)C2=O` (centres unmarked) [Lenalidomide, reference compound] as the molecule, how does the “effect of pretreatment on dFKBP13-induced degradation of dTAG-KRASG12V” value (FKBP*-KRASG12V; [4]) read?
**A.** abolished

**Q.** What about the “effect of pretreatment on dFKBP13-induced degradation of HA-tagged FKBP*” value [1, 4] of the same molecule?
**A.** abolished

**Q.** What does the source list for `NS(=O)(=O)OC[C@@H]1C[C@@H](n2ccc3c(N[C@H]4CCc5ccccc54)ncnc32)C[C@@H]1O` [MLN4924, reference compound]?
**A.** effect of pretreatment on dFKBP13-induced degradation of dTAG-KRASG12V (FKBP*-KRASG12V; [5]): rescued; effect of pretreatment on dFKBP13-induced degradation of HA-tagged FKBP* [1, 5]: rescued

**Q.** What does the source list for `CC[C@H](C(=O)N1CCCC[C@H]1C(=O)O[C@H](CCc1ccc(OC)c(OC)c1)c1cccc(OCC(=O)NCCCCCCCCNC(=O)COc2cccc3c2C(=O)N(C2CCC(=O)NC2=O)C3=O)c1)c1cc(OC)c(OC)c(OC)c1` (some centres unmarked) [dFKBP9]?
**A.** degradation of FKBP*-KRASG12V (FKBP*-KRASG12V; NIH3T3, 1 uM, 24 hours): potent degradation; downstream signaling (pMEK and pAKT) [2]: inhibition of downstream signaling
